From patent US6737383B1, “Herbicidal oxadiazolidines” (priority 1999, dated 2004)

How the values were obtained:
[1] = system: surinam grass; assay: Test B pre/postemergence surinam grass; assay type: in vivo, Brachiaria decumbens
Summary of the method: (§1)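 Response is a visual 0-to-10 score relative to untreated plants, where 0 means no effect and 10 means complete control, taken twelve to sixteen days after application. Treatments went onto soil at planting and onto foliage of 1- to 4-leaf plants, using a surfactant-containing non-phytotoxic solvent.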

[2] = system: cocklebur; assay: Test B pre/postemergence cocklebur; assay type: in vivo, Xanthium strumarium
Summary of the method: as §1

[3] = system: velvetleaf; assay: Test B pre/postemergence velvetleaf; assay type: in vivo, Abutilon theophrasti
Summary of the method: as §1

[4] = system: wheat; assay: Test B pre/postemergence wheat; assay type: in vivo, Triticum aestivum
Summary of the method: as §1

[5] = system: bedstraw; assay: Test B pre/postemergence bedstraw; assay type: in vivo, Galium aparine; settings: Postemergence
Summary of the method: as §1

[6] = system: crabgrass; assay: Test B pre/postemergence crabgrass; assay type: in vivo, Digitaria sanguinalis
Summary of the method: as §1

[7] = system: corn; assay: Test B pre/postemergence corn; assay type: in vivo, Zea mays
Summary of the method: as §1

[8] = system: smallflower flatsedge; assay: Test B flood test smallflower flatsedge; assay type: in vivo, Cyperus difformis
Summary of the method: (§2)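 Each value is a visual injury score relative to controls, with 10 meaning complete control and 0 no effect. Evaluation took place twelve to sixteen days after the 2-leaf-stage plants were treated and kept in the greenhouse.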

[9] = system: sugar beet; assay: Test B pre/postemergence sugar beet; assay type: in vivo, Beta vulgaris
Summary of the method: as §1

[10] = system: rape; assay: Test B pre/postemergence rape; assay type: in vivo, Brassica napus
Summary of the method: as §1

[11] = system: rice; assay: Test B flood test rice; assay type: in vivo, Oryza sativa
Summary of the method: as §2

[12] = system: duck salad; assay: Test B flood test duck salad; assay type: in vivo, Heteranthera limosa
Summary of the method: as §2

[13] = system: soybean; assay: Test B pre/postemergence soybean; assay type: in vivo, Glycine max
Summary of the method: as §1

[14] = system: wild oat; assay: Test B pre/postemergence wild oat; assay type: in vivo, Avena fatua
Summary of the method: as §1

[15] = system: blackgrass; assay: Test B pre/postemergence blackgrass; assay type: in vivo, Alopecurus myosuroides
Summary of the method: as §1

[16] = system: purple nutsedge; assay: Test B pre/postemergence purple nutsedge; assay type: in vivo, Cyperus rotundus
Summary of the method: as §1

[17] = system: bamyardgrass; assay: Test B flood test barnyardgrass; assay type: in vivo, Echinochloa crus-galli
Summary of the method: as §2

[18] = Postemergence, Rate 500 g/ha, scale of 0 to 10 where 0 is no effect and 10 is complete control
[19] = Preemergence, Rate 62 g/ha, scale of 0 to 10 where 0 is no effect and 10 is complete control
[20] = Preemergence, Rate 125 g/ha, scale of 0 to 10 where 0 is no effect and 10 is complete control
[21] = Preemergence, Rate 250 g/ha, scale 0 to 10, 0 is no effect, 10 is complete control
[22] = Preemergence, Rate 500 g/ha, scale 0 to 10, 0 is no effect, 10 is complete control
[23] = Rate 62 g/ha, Postemergence, scale 0 to 10, 0 no effect, 10 complete control
[24] = Rate 125 g/ha, Postemergence, scale 0 to 10, 0 is no effect, 10 is complete control
[25] = Postemergence, Rate 250 g/ha, scale 0 to 10
[26] = Rate 62 g/ha, flood test species, Pre-emergence, visual evaluation after twelve to sixteen days
[27] = Rate 125 g/ha, under heading Pre-emergence, flood test species, visual evaluation after twelve to sixteen days
[28] = Rate 250 g/ha, Pre-emergence (flood test species), scale 0 to 10, 0 is no effect, 10 is complete control
[29] = Rate 500 g/ha, Pre-emergence, flood test species, scale 0 to 10 (0 no effect, 10 complete control)

SMILES: CC(C)N(C(=O)n1oc(=O)n(CCl)c1=O)c1ccc(F)cc1F [Compound 437]
- B. signalgrass plant response rating ([1]; Postemergence, Rate 250 g/ha, scale 0 to 10, 0 no effect, 10 complete control): 0
- B. signalgrass plant response rating [1, 18]: 0
- Plant response rating, B. signalgrass [1, 19]: 0
- Plant response rating, B. signalgrass [1, 20]: 0
- B. signalgrass plant response rating [1, 21]: 0
- B. signalgrass plant response rating [1, 22]: 0
- B. signalgrass plant response rating [1, 23]: 0
- B. signalgrass plant response rating [1, 24]: 0
- Cocklebur plant response rating [2, 25]: 0
- Cocklebur plant response rating [2, 18]: 1
- Plant response rating, Cocklebur [2, 19]: 0
- Plant response rating, Cocklebur [2, 20]: 0
- Cocklebur plant response rating [2, 21]: 0
- Cocklebur plant response rating [2, 22]: 0
- Cocklebur plant response rating [2, 23]: 0
- Cocklebur plant response rating [2, 24]: 0
- Velvetleaf plant response rating [3, 25]: 0
- Velvetleaf plant response rating [3, 18]: 0
- Plant response rating, Velvetleaf [3, 19]: 0
- Plant response rating, Velvetleaf [3, 20]: 0
- Velvetleaf plant response rating [3, 21]: 0
- Velvetleaf plant response rating [3, 22]: 0
- Velvetleaf plant response rating [3, 23]: 0
- Velvetleaf plant response rating [3, 24]: 0
- Wheat plant response rating [4, 25]: 0
- Wheat plant response rating [4, 18]: 0
- Plant response rating, Wheat [4, 19]: 0
- Plant response rating, Wheat [4, 20]: 0
- Wheat plant response rating [4, 21]: 0
- Wheat plant response rating [4, 22]: 0
- Wheat plant response rating [4, 23]: 0
- Wheat plant response rating [4, 24]: 0
- Bedstraw plant response rating ([5]; Rate 250 g/ha, scale 0 to 10): 0
- Bedstraw plant response rating ([5]; Rate 62 g/ha, scale 0 to 10, 0 no effect, 10 complete control): 0
- Bedstraw plant response rating ([5]; Rate 125 g/ha, scale 0 to 10, 0 is no effect, 10 is complete control): 0
- Crabgrass plant response rating [6, 25]: 1
- Crabgrass plant response rating [6, 18]: 3
- Plant response rating, Crabgrass [6, 19]: 0
- Plant response rating, Crabgrass [6, 20]: 0
- Crabgrass plant response rating [6, 21]: 0
- Crabgrass plant response rating [6, 22]: 2
- Crabgrass plant response rating [6, 23]: 0
- Crabgrass plant response rating [6, 24]: 1
- Corn plant response rating [7, 25]: 0
- Corn plant response rating [7, 18]: 0
- Plant response rating, Corn [7, 19]: 0
- Plant response rating, Corn [7, 20]: 0
- Corn plant response rating [7, 21]: 0
- Corn plant response rating [7, 22]: 0
- Corn plant response rating [7, 23]: 0
- Corn plant response rating [7, 24]: 0
- Plant response rating, S. Flatsedge (0 to 10 scale, 0 is no effect, 10 is complete control) [8, 26]: 0
- S. Flatsedge plant response rating (0 to 10 scale, 0 is no effect, 10 is complete control) [8, 27]: 0
- S. Flatsedge plant response rating [8, 28]: 0
- S. Flatsedge plant response rating [8, 29]: 0
- Sugarbeets plant response rating [9, 25]: 0
- Sugarbeets plant response rating [9, 18]: 0
- Plant response rating, Sugarbeets [9, 19]: 0
- Plant response rating, Sugarbeets [9, 20]: 0
- Sugarbeets plant response rating [9, 21]: 0
- Sugarbeets plant response rating [9, 22]: 0
- Sugarbeets plant response rating [9, 23]: 0
- Sugarbeets plant response rating [9, 24]: 0
- Rape plant response rating [10, 25]: 0
- Rape plant response rating [10, 18]: 0
- Plant response rating, Rape [10, 19]: 0
- Plant response rating, Rape [10, 20]: 0
- Rape plant response rating [10, 21]: 0
- Rape plant response rating [10, 22]: 0
- Rape plant response rating [10, 23]: 0
- Rape plant response rating [10, 24]: 0
- Plant response rating, Rice (0 to 10 scale, 0 is no effect, 10 is complete control) [11, 26]: 0
- Rice plant response rating (0 to 10 scale, 0 is no effect, 10 is complete control) [11, 27]: 0
- Rice plant response rating [11, 28]: 0
- Rice plant response rating [11, 29]: 0
- Plant response rating, Ducksalad (0 to 10 scale, 0 is no effect, 10 is complete control) [12, 26]: 0
- Ducksalad plant response rating (0 to 10 scale, 0 is no effect, 10 is complete control) [12, 27]: 0
- Ducksalad plant response rating [12, 28]: 0
- Ducksalad plant response rating [12, 29]: 0
- Soybean plant response rating [13, 25]: 0
- Soybean plant response rating [13, 18]: 2
- Plant response rating, Soybean [13, 19]: 0
- Plant response rating, Soybean [13, 20]: 0
- Soybean plant response rating [13, 21]: 0
- Soybean plant response rating [13, 22]: 0
- Soybean plant response rating [13, 23]: 0
- Soybean plant response rating [13, 24]: 0
- Wild oats plant response rating [14, 25]: 0
- Wild oats plant response rating [14, 18]: 3
- Plant response rating, Wild oats [14, 19]: 0
- Plant response rating, Wild oats [14, 20]: 0
- Wild oats plant response rating [14, 21]: 0
- Wild oats plant response rating [14, 22]: 0
- Wild oats plant response rating [14, 23]: 0
- Wild oats plant response rating [14, 24]: 0
- Blackgrass plant response rating [15, 25]: 0
- Blackgrass plant response rating [15, 18]: 0
- Plant response rating, Blackgrass [15, 19]: 0
- Plant response rating, Blackgrass [15, 20]: 0
- Blackgrass plant response rating [15, 21]: 0
- Blackgrass plant response rating [15, 22]: 0
- Blackgrass plant response rating [15, 23]: 0
- Blackgrass plant response rating [15, 24]: 0
- Nutsedge plant response rating [16, 25]: 0
- Nutsedge plant response rating [16, 18]: 0
- Plant response rating, Nutsedge [16, 19]: 0
- Plant response rating, Nutsedge [16, 20]: 0
- Nutsedge plant response rating [16, 21]: 0
- Nutsedge plant response rating [16, 22]: 0
- Nutsedge plant response rating [16, 23]: 0
- Nutsedge plant response rating [16, 24]: 0
- Plant response rating, Barnyardgrass (0 to 10 scale, 0 is no effect, 10 is complete control) [17, 26]: 0
- Barnyardgrass plant response rating (0 to 10 scale, 0 is no effect, 10 is complete control) [17, 27]: 0
- Barnyardgrass plant response rating [17, 28]: 0
- Barnyardgrass plant response rating [17, 29]: 0
